According to patent EP1268487B1, “TRICYCLIC PROTEIN KINASE INHIBITORS” (Wyeth, priority 2000, dated 2001):
Values after ≈ are worked out from the molar mass of the structure shown.

Tests used:
[1] = system: MDA435; experiment: Inhibition of cancer cell growth as measured by cell number (Sulforhodamine B); assay type: cell-based; conditions: Homo sapiens, 48 hours exposure
Experimental: (§1) Human tumor cell lines were plated in 96-well plates (250 µl/well, 1-6 x 10^4 cells/ml) in RPMI 1640 medium, containing 5% FBS (Fetal Bovine Serum). […] After 48 hours exposure to test compounds, cells were fixed with trichloroacetic acid, and stained with Sulforhodamine B. After washing with trichloroacetic acid, bound dye was solubilized in 10 mM Tris base and optical density was determined using a plate reader. Under conditions of the assay the optical density is proportional to the number of cells in the well. IC50s (concentrations causing 50% inhibition of cell growth) were determined from the growth inhibition plots. The test procedure is described in details by Philip Skehan et. al, J.Natl. Canc. Inst., 82, 1107-1112 (1990). […] Information about some of the cell lines used in these test procedures is available from the American Type Tissue Collection: Cell Lines and Hybridomas, 1994 Reference Guide, 8th Edition. The Her2Neu cell line is a 3T3 line that has been transfected with Her2 receptor kinase.

[2] = system: SW620; experiment: as above; assay type: cell-based; conditions: Homo sapiens, SW-620; 48 hours exposure
Experimental: as §1

[3] = system: A431; experiment: as above; assay type: cell-based; conditions: Homo sapiens, A-431; 48 hours exposure
Experimental: as §1

[4] = system: Her2Neu; experiment: as above; assay type: cell-based; conditions: 48 hours exposure; 3T3 line transfected with Her2 receptor kinase
Experimental: as §1

[5] = system: 3T3; experiment: as above; assay type: cell-based; conditions: Mus musculus, NIH3T3; 48 hours exposure
Experimental: as §1

[6] = biological target: T1, Epidermal Growth Factor Receptor Kinase (EGF-R) (Homo sapiens, UniProt P00533); experiment: Inhibition of Epidermal Growth Factor Receptor Kinase (EGF-R) using recombinant enzyme; assay type: biochemical; conditions: for inhibition at 0.5 µM: 0.5 µM concentration of test compound
T1 construct: containing the EGFR cDNA encoding amino acids 645 - 1186 preceded by Met-Ala-(His)6; Met-Ala-(His)6 (N); made in house; host or cells: Sf9 insect cells (baculovirus vHcEGFR52)
T1 sequence (P00533 669-1210): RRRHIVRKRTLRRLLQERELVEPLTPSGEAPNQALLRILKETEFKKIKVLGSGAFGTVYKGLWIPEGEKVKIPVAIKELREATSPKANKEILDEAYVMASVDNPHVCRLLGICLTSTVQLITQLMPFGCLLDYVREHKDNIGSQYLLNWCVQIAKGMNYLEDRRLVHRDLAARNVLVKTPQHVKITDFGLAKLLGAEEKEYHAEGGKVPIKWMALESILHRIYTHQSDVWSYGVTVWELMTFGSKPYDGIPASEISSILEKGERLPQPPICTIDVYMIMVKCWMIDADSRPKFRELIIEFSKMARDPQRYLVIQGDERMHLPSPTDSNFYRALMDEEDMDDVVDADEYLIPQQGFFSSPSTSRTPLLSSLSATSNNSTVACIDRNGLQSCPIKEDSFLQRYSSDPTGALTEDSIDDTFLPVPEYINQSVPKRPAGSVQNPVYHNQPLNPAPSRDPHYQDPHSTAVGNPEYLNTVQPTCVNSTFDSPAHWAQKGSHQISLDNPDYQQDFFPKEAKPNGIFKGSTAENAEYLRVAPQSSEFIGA
Experimental: Representative test compounds were evaluated for their ability to inhibit the phosphorylation of the tyrosine residue of a peptide substrate catalyzed by the enzyme epidermal growth factor receptor kinase. The peptide substrate (RR-SRC) has the sequence arg-arg-leu-ile-glu-asp-ala-glu-tyr-ala-ala-arg-gly. The enzyme used in this assay is the His-tagged cytoplasmic domain of EGFR. A recombinant baculovirus (vHcEGFR52) was constructed containing the EGFR cDNA encoding amino acids 645 - 1186 preceded by Met-Ala-(His)6. Sf9 cells in 100 mm plates were infected at an moi of 10 pfu/cell and cells were harvested 48 hours post infection. A cytoplasmic extract was prepared using 1% Triton X-100 and applied to Ni-NTA column. After washing the column with 20 mM imidazole, HcEGFR was eluted with 250 mM imidazole (in 50 mM Na2HPO4, pH 8.0, 300 mM NaCl). Fractions collected were dialyzed against 10 mM HEPES, pH 7.0, 50 mM NaCl, 10% glycerol, 1µg/mL antipain and leupeptin and 0.1 mM Pefabloc SC. The protein was frozen in dry ice/methanol and stored -70° C.
Test compounds were made into 10 mg/mL stock solutions in 100% dimethylsulfoxide (DMSO). Prior to experiment, stock solutions were diluted to 500 µM with 100% DMSO and then serially diluted to the desired concentration with HEPES buffer (30 mM HEPES pH 7.4).
For the enzyme reaction, 10 µL of each inhibitor (at various concentrations) were added to each well of a 96-well plate. To this was added 3 µL of enzyme (1:10 dilution in 10mM HEPES, pH 7.4 for final conc. of 1:120). This was allowed to sit for 10 minutes on ice and was followed by the addition of 5 µl peptide (80 uM final conc.), 10µl of 4X Buffer (Table A), 0.25 µL ^33P-ATP and 12 µL H2O. The reaction was allowed to run for 90 minutes at room temperature and was followed by spotting the entire volume on to precut P81 filter papers. The filter discs were washed 2X with 0.5% phosphoric acid and radioactivity was measured using a liquid scintillation counter. Table A
The inhibition data for representative compounds of the invention are shown below in TABLE 1. The IC50 is the concentration of test compound needed to reduce the total amount of phosphorylated substrate by 50%. The % inhibition of the test compound was determined for at least three different concentrations and the IC50 value was evaluated from the dose response curve. […] CPM(control) is in units of counts per minute and was a number expressing the amount of radiolabeled ATP (γ-^33P) incorporated into the RR-SRC peptide substrate by the enzyme after 90 minutes at room temperature in the absence of test compound as measured by liquid scintillation counting. The CPM values were corrected for the background counts produced by ATP in the absence of the enzymatic reaction. Where it was possible to determine an IC50 value, this is reported in TABLE 1 otherwise the % inhibition at 0.5 µM concentration of test compound is shown in TABLE 1.

[7] = system: Human Epidermoid Tumors (A431); experiment: In vivo inhibition of the growth of human epidermoid tumors (A431); design: species or system BALB/c nu/nu female mice; conditions: for %T/C / RTG Day 7 / RTG Day 14 / RTG Day 21: days 1 through 10; for S/T: # of Survivors/# of Treated on Day +21
Experimental: BALB/c nu/nu female mice (Charles River, Wilmington, MA) were used in the in vivo standard pharmacological test procedures. Human epidermoid carcinoma cells A-431 (American Type Culture Collection, Rockville, Maryland # CRL-155) were grown in vitro as described above. A unit of 5 X 10^6 cells were injected subcutaneously into mice. When tumors attained a mass of between 100 and 150 mg, the mice were randomized into treatment groups (day zero). Mice were treated orally (PO) once a day on days 1 through 10 post staging with doses of either 40, 20, 10, 3 or 1 mg/kg/dose of the compound to be evaluated in 0.2% Klucel. Control animals received no drug. Tumor mass was determined every 7 days [(length X width^2)/2] for 28 days post staging. Relative tumor growth (Mean tumor mass on day 7, 14, and 21 divided by the mean tumor mass on day zero) is determined for each treatment group. The %T/C (Tumor/Control) is determined by dividing the relative tumor growth of the treated group by the relative tumor growth of the placebo group and multiplying by 100. A compound is considered to be active if the %T/C is found to be […].

[8] = system: SKBR3; experiment: Inhibition of cancer cell growth as measured by cell number (Sulforhodamine B); assay type: cell-based; conditions: Homo sapiens, SK-BR-3; 48 hours exposure
Experimental: as §1

[9] = biological target: T2, c-Met (Homo sapiens, UniProt P08581); experiment: DELFIA assay for c-Met receptor kinase inhibitors; assay type: biochemical
T2 construct: The cytoplasmic domain of c-Met was generated by reverse transcriptase-polymerase chain reaction; His tag (from pFastBac-HTc vector; purified on Ni-NTA/Talon); made in house; host or cells: Sf9 insect cells (baculovirus)
T2 sequence (P08581 956-1390 limits assumed): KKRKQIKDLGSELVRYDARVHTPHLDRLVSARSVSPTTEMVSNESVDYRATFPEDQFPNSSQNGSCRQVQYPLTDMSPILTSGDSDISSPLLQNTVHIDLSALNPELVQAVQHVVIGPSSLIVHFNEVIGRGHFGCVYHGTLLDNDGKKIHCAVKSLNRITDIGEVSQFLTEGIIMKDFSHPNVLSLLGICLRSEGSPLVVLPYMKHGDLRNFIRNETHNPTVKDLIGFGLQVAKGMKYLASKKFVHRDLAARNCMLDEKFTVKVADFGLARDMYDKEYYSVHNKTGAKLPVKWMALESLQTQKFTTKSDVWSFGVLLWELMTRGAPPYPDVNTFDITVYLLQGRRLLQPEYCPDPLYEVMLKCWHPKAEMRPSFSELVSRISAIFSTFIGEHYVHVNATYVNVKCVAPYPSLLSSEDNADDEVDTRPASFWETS
Experimental: The c-Met kinase assay was performed as a DELFIA (dissociation enchanced lanthanide fluorometric immunoassay), an ELISA-like protocol based upon time-resolved fluorometry as described previously [Braunwalder, A. F., Yarwood, D.R., Sills, M.A., and Lipson, K.E., Anal. Biochem. 238, 159-164 (1996)]. The protocol was adopted for the screening of inhibitors of the kinase activity of recombinant c-Met. [Loganzo, F., and. Hardy, C., American Biotechnology Laboratory 16(13), 26-28 (1998)]. The cytoplasmic domain of c-Met was generated by reverse transcriptase-polymerase chain reaction using RNA isolated from human mammary epithelial cells as template, cloned into the pFastBac-HTc vector (Life Technologies) and protein expressed in Sf9 insect cells by baculovirus infection. Protein was purified by imidazole elution from Ni-NTA resin (Invitrogen, Carlsbad, CA) or Talon resin (Clontech, Palo Alto, CA). Various conditions were evaluated for the kinase screening protocol and screening was accomplished with the following method. Polystyrene Maxisorp plates (Nunc) were pre-coated for 1 hour to overnight at room temperature with 5 µg/ml poly(Glu4-Tyr) diluted in Tris-buffered saline (TBS). Plates were washed 3X with TBS. c-Met protein preparation was diluted 1:80 into 0.1% BSA/ 4 mM HEPES. A master mix was prepared consisting of: 1 volume of diluted c-Met, 1 volume of 5X buffer (20 mM HEPES, pH 7.4; 2 mM MnCl2; 100 µM Na3VO4; 1 mM DTT), 0.9 volume of water. Master mix (29 µl) was added to the wells of peptide-coated microtiter plates. For assays where c-Met autophosphorylation was evaluated, plates were uncoated and c-Met was diluted into 4 mM HEPES at 1:40 without BSA. Compounds (1 µl) at various dilutions (1 mM to 0.1 µM) prepared in DMSO were added and mixed well with an automatic piptettor. After incubation 20 minutes at room temperature, the reaction was initiated with 20 µl of 62.5 µM ATP/ 50 mM MgCl2 (final 25 µM ATP/ 20 mM MgCl2 in assay). Reactions were incubated 45 minutes at room temperature. Plates were then washed 3X with 100 µl each of DELFIA wash buffer (Wallac). Antibody binding was performed by adding 75 µl of Europium-conjugated anti-phosphotyrosine diluted 1:2000 in Assay Buffer (Wallac) for 1 hour at room temperature. Plates were washed 3X with DELFIA wash buffer. Detection was done by addition of 100 µl of Enhancement Solution (Wallac). After 30 minutes, plates were read in a Wallac VICTOR-2 time-resolved fluorometer. Inhibition data was reported as europium counts for compound treated wells normalized to control counts. IC50 values were obtained by using log doses of compound and calculated using Data Analysis Toolbox software, version 1.0.2 (MDL Information Systems, Inc.).

CN(C)C/C=C/C(=O)N1CCOc2cc3ncc(C#N)c(Nc4ccc(F)c(Cl)c4)c3cc21 [Example 9, 9-(3-Chloro-4-fluoroanilino)-1-[(2E)-4-(dimethylamino)-2-butenoyl]-2,3-dihydro-1H-[1,4]oxazino[3,2-g]quinoline-8-carbonitrile]
IC50 [1]: 0.24 mg/L (≈ 0.515 µM) | IC50 [2]: 0.165 mg/L (≈ 0.354 µM) | IC50 [3]: 0.108 mg/L (≈ 0.232 µM) | IC50 [4]: 0.15 mg/L (≈ 0.323 µM) | IC50 [5]: 0.169 mg/L (≈ 0.364 µM) | inhibition at 0.5 µM [6]: 56.5% | IC50 ([6]; recombinant enzyme): 0.17 µM | %T/C ([7]; 1 mg/kg/dose PO, Day 7): 103% | RTG Day 7 ([7]; 1 mg/kg/dose PO, Day 7): 4.66 | %T/C ([7]; 1 mg/kg/dose PO, Day 14): 73% | RTG Day 14 ([7]; 1 mg/kg/dose PO, Day 14): 8.11 | %T/C ([7]; 1 mg/kg/dose PO, Day 21): 76% | RTG Day 21 ([7]; 1 mg/kg/dose PO, Day 21): 13.23 | S/T ([7]; 1 mg/kg/dose PO): 5/5 | %T/C ([7]; 3 mg/kg/dose PO, Day 7): 104% | RTG Day 7 ([7]; 3 mg/kg/dose PO, Day 7): 4.76 | %T/C ([7]; 3 mg/kg/dose PO, Day 14): 107% | RTG Day 14 ([7]; 3 mg/kg/dose PO, Day 14): 11.79 | %T/C ([7]; 3 mg/kg/dose PO, Day 21): 137% | RTG Day 21 ([7]; 3 mg/kg/dose PO, Day 21): 23.77 | S/T ([7]; 3 mg/kg/dose PO): 5/5 | %T/C ([7]; 10 mg/kg/dose PO, Day 7): 105% | RTG Day 7 ([7]; 10 mg/kg/dose PO, Day 7): 4.81 | %T/C ([7]; 10 mg/kg/dose PO, Day 14): 87% | RTG Day 14 ([7]; 10 mg/kg/dose PO, Day 14): 9.66 | %T/C ([7]; 10 mg/kg/dose PO, Day 21): 64% | RTG Day 21 ([7]; 10 mg/kg/dose PO, Day 21): 11.49 | S/T ([7]; 10 mg/kg/dose PO): 5/5 | %T/C ([7]; 20 mg/kg/dose PO, Day 7): 118% | RTG Day 7 ([7]; 20 mg/kg/dose PO, Day 7): 5.40 | %T/C ([7]; 20 mg/kg/dose PO, Day 14): 96% | RTG Day 14 ([7]; 20 mg/kg/dose PO, Day 14): 10.56 | %T/C ([7]; 20 mg/kg/dose PO, Day 21): 84% | RTG Day 21 ([7]; 20 mg/kg/dose PO, Day 21): 14.56 | S/T ([7]; 20 mg/kg/dose PO): 5/5 | %T/C ([7]; 40 mg/kg/dose PO, Day 7): 75% | RTG Day 7 ([7]; 40 mg/kg/dose PO, Day 7): 3.40 | %T/C ([7]; 40 mg/kg/dose PO, Day 14): 53% | RTG Day 14 ([7]; 40 mg/kg/dose PO, Day 14): 5.93 | %T/C ([7]; 40 mg/kg/dose PO, Day 21): 41% | RTG Day 21 ([7]; 40 mg/kg/dose PO, Day 21): 7.15 | S/T ([7]; 40 mg/kg/dose PO): 5/5 | inhibition of tumor growth in vivo ([7]; summary statement in words): effective inhibitor of tumor growth in vivo

CN(C)CCCC(=O)N1CCOc2cc3ncc(C#N)c(Nc4ccc(F)c(Cl)c4)c3cc21 [Example 10]
IC50 [1]: 2.72 mg/L (≈ 5.81 µM) | IC50 [2]: 1.89 mg/L (≈ 4.04 µM) | IC50 [3]: 1.01 mg/L (≈ 2.15 µM) | IC50 [8]: 1.07 mg/L (≈ 2.28 µM) | IC50 [4]: > 5 mg/L | IC50 [5]: 1.99 mg/L (≈ 4.25 µM) | inhibition at 0.5 µM [6]: 57.8% | inhibition at 10 µg/mL [9]: 50%
